Like-named read-outs stand apart in the source and are kept apart here.
Tests used:
[1] = system: Capan-1 pancreatic adenocarcinoma cells; assay: Antiproliferative activity, Capan-1 cells; assay type: cell-based, human; conditions: Homo sapiens, CAPAN-1, 72 h, Capan-1, 72 h incubation
Procedure: (§1) All prepared imidazo[4,5-b]pyridines were tested for their antiproliferative activity against the following cancer cell lines: LN-229—glioblastoma, Capan-1—pancreatic adenocarcinoma, HCT-116—colorectal carcinoma, NCI-H460—lung carcinoma, DND-41—acute lymphoblastic leukemia, HL-60—acute myeloid leukemia, K-562—chronic myeloid leukemia, and Z-138—non-Hodgkin lymphoma cancer cells. An overview of the results is presented in Table 2 as IC50 values (50% inhibitory concentration). An established antitumor drug, etoposide (ETO), was included for comparison.
(§2) For proliferation assays, the human cancer cell lines used in this manuscript, namely Capan-1, HCT-116, NCI-H460, LN-229, HL-60, K-562, and Z-138, were acquired from the American Type Culture Collection (ATCC, Manassas, VA, USA), while the DND-41 cell line was purchased from the Deutsche Sammlung von Mikroorganismen und Zellkulturen (DSMZ Leibniz-Institut, Braunschweig, Germany). Culture media were purchased from Gibco (Gibco Life Technologies, Merelbeke, Belgium) and supplemented with 10% fetal bovine serum (HyClone, Cytiva, Marlborough, MA, USA). Adherent cell lines LN-229, HCT-116, NCI-H460, and Capan-1 cells were seeded in 384-well tissue culture plates (Greiner, Kremsmünster, Austria) at a density between 500 and 1500 cells per well (500 cells per well for Capan-1, 1000 cells per well for LN-229 and HCT-116, and 1500 cells per well for NCI-H460). The cells were treated with seven different concentrations of the test compounds in a 5-fold dilution series ranging from 100 to 0.006 µM after overnight incubation. Suspension cell lines HL-60, K-562, Z-138, and DND-41 were seeded at densities ranging from 2500 to 5500 cells per well (2500 cells per well for HL-60, K-562, and Z-138, and 5500 cells per well for DND-41) in 384-well culture plates containing the test compounds at the same concentration points. All conditions were incubated for 72 h before measuring the cell viability by the CellTiter 96® AQueous Non-Radioactive Cell Proliferation Assay (Promega, Madison, WA, USA) according to the manufacturer’s instructions. After 3 h, absorbance of all conditions was measured at 490 nm using a SpectraMax Plus 384 (Molecular Devices, San Jose, CA, USA), and the OD values were used to calculate the 50% inhibitory concentration (IC50). Compounds were tested in two independent experiments.

[2] = system: HCT-116 colorectal carcinoma cells; assay: Antiproliferative activity, HCT-116 cells; assay type: cell-based, human; conditions: Homo sapiens, HCT-116, 72 h, HCT-116, 72 h incubation
Procedure: as §1, §2

[3] = system: LN-229 glioblastoma cells; assay: Antiproliferative activity, LN-229 cells; assay type: cell-based, human; conditions: Homo sapiens, LN-229, 72 h, LN-229, 72 h incubation
Procedure: as §1, §2

[4] = system: NCI-H460 lung carcinoma cells; assay: Antiproliferative activity, NCI-H460 cells; assay type: cell-based, human; conditions: Homo sapiens, NCI-H460, 72 h, NCI-H460, 72 h incubation
Procedure: as §1, §2

[5] = system: DND-41 acute lymphoblastic leukemia cells; assay: Antiproliferative activity, DND-41 cells; assay type: cell-based, human; conditions: Homo sapiens, DND41, 72 h, DND-41, 72 h incubation
Procedure: as §1, §2

[6] = system: HL-60 acute myeloid leukemia cells; assay: Antiproliferative activity, HL-60 cells; assay type: cell-based, human; conditions: Homo sapiens, HL-60, 72 h, HL-60, 72 h incubation
Procedure: as §1, §2

[7] = system: K-562 chronic myeloid leukemia cells; assay: Antiproliferative activity, K-562 cells; assay type: cell-based, human; conditions: Homo sapiens, K562, 72 h, K-562, 72 h incubation
Procedure: as §1, §2

[8] = system: Z-138 non-Hodgkin lymphoma cells; assay: Antiproliferative activity, Z-138 cells; assay type: cell-based, human; conditions: Homo sapiens, Z-138, 72 h, Z-138, 72 h incubation
Procedure: as §1, §2

[9] = system: human cancer cell lines; assay: Antiproliferative activity, panel of human cancer cell lines; assay type: cell-based
Procedure: as §1, §2

[10] = system: normal peripheral blood mononuclear cells (PBMC); assay: Toxicity in normal peripheral blood mononuclear cells; assay type: cell-based
From the text: Figure 6 Toxicity of compounds 13 and 19 in normal cells.

[11] = system: host cell lines; conditions: host cell lines of the antiviral assays
[12] = system: human coronavirus HCoV-229E; assay: organism not typed; assay type: cell-based, human coronavirus 229E; conditions: HEL 299 host cells; read-out: Antiviral Activity (EC50) HCoV 229E HEL 299
[13] = system: human coronavirus HCoV-OC43; assay: Antiviral CPE assay, HCoV-OC43 in HEL 299; assay type: cell-based; conditions: HEL 299 host cells
[14] = system: human coronavirus HCoV-NL63; assay: Antiviral CPE assay, HCoV-NL63 in Hep3B; assay type: cell-based; conditions: Hep3B host cells
[15] = system: influenza A/H1N1 (A/Ned/378/05); assay: Antiviral CPE assay, influenza A/H1N1 in MDCK; assay type: cell-based; conditions: Influenza A virus, MDCK host cells
[16] = system: influenza A/H3N2 (A/HK/7/87); assay: Antiviral CPE assay, influenza A/H3N2 in MDCK; assay type: cell-based; conditions: Influenza A virus, MDCK host cells
[17] = system: influenza B (B/Ned/537/05); assay: Antiviral CPE assay, influenza B in MDCK; assay type: cell-based; conditions: Influenza B virus; MDCK host cells
[18] = system: respiratory syncytial virus (RSV) A; assay: Antiviral CPE assay, RSV in Hep-2; assay type: cell-based; conditions: human respiratory syncytial virus; Hep-2 host cells
[19] = system: herpes simplex virus-1 (HSV-1 KOS); assay: Antiviral CPE assay, HSV-1 in HEL 299; assay type: cell-based; conditions: HEL 299 host cells
[20] = system: yellow fever virus (YFV); assay: microbe, parasite or virus in culture; assay type: cell-based
[21] = system: Zika virus (ZIKV); assay: Antiviral CPE assay, ZIKV in VeroE6; assay type: cell-based; conditions: VeroE6 host cells
[22] = system: Sindbis virus (SINDV); assay: Antiviral CPE assay, SINDV in VeroE6; assay type: cell-based; conditions: VeroE6 host cells
[23] = system: Semliki Forest virus (SFV); assay: Antiviral CPE assay, SFV in VeroE6; assay type: cell-based; conditions: VeroE6 host cells
[24] = in vitro; conditions: human
[25] = in vitro; conditions: human; remark: listed apart in the source
[26] = in vitro; conditions: dog
[27] = in vitro; conditions: human; remark: listed apart in the source
[28] = in vitro; conditions: African green monkey
[29] = system: HEp-2 cells; assay: Cell cycle progression, HEp-2 cells; assay type: cell-based, human
From the text: (§3) Lastly, the effects of lead compound 19 on the cell cycle progression of three cancer cell lines, namely HEp-2, NCI-H460, and LN-229, were explored.
(§4) Figure 7 The effects of lead compound 19 on cell cycle progression of NCI-H460 (left), LN-229 (middle), and Hep-2 (right) cells.

[30] = system: NCI-H460 cells; assay: Cell cycle progression, NCI-H460 cells; assay type: cell-based, human
From the text: as §3, §4

[31] = system: LN-229 cells; assay: Cell cycle progression, LN-229 cells; assay type: cell-based, human
From the text: as §3, §4

[32] = system: HEL 299 cells; conditions: read-out: Cytotoxicity (CC50) HEL 299; uninfected HEL 299 cells
[33] = system: VeroE6 cells; conditions: read-out: Cytotoxicity (CC50) Vero E6; uninfected Vero E6 cells
[34] = most/majority of the tested cancer cell lines, read-out: IC50 range against most of the tested cell lines

| SMILES | IC50 [1] | IC50 [2] | IC50 [3] | IC50 [4] | IC50 [5] | IC50 [6] | IC50 [7] | IC50 [8] | IC50 [9, 34] | Effect on viability of PBMC ([10]; 10 µM) | Effect on viability of PBMC ([10]; 100 µM (highest dose tested)) | Cytotoxicity on host cell lines [11] | EC50 [12] | EC50 ([13]; Betacoronavirus 1, OC43) | EC50 [14] | EC50 [18] | EC50 ([19]; Human alphaherpesvirus 1) | CC50 [24] | CC50 [25] | CC50 [27] | further results |
| --- | --- | --- | --- | --- | --- | --- | --- | --- | --- | --- | --- | --- | --- | --- | --- | --- | --- | --- | --- | --- | --- |
| Oc1ccc(-c2cnc3[nH]c(-c4ccccc4)nc3c2)cc1 [Compound 13, 4-(2-phenyl-3H-imidazo [4,5-b]pyridin-6-yl)phenol] | 1.5 µM | 3.94 µM | 4.1 µM | 4.25 µM | 4.25 µM | 1.65 µM | 3.42 µM | 1.87 µM | 1.45 to 4.25 µM | little to no effect | negatively impacted the viability | cytotoxicity was observed on all host cell lines, with the exception of the non-cancerous HEL 229 cells | – | – | – | – | – | – | – | – | IC50 ([9]; Capan-1, HL-60 and Z-138 cell lines, read-out: IC50 range, particularly strong inhibition): 1.5 to 1.87 µM |
| N#Cc1ccc(-c2cnc3[nH]c(-c4ccccc4)nc3c2)cc1 [Compound 15, 4-(2-phenyl-3H-imidazo [4,5-b]pyridin-6-yl)benzonitrile] | 10.8 µM | > 100 µM | 79.2 µM | > 100 µM | > 100 µM | 37.2 µM | > 100 µM | 34.4 µM | – | – | – | – | 31.3 µM | > 50 µM | > 50 µM | > 50 µM | > 50 µM | > 50 µM | > 50 µM | > 50 µM | EC50 [15]: 33.5 µM; EC50 [16]: 39.5 µM; EC50 [17]: 34.5 µM; EC50 ([20]; Yellow fever virus, Vero C1008, read-out: Antiviral Activity (EC50) YFV VeroE6): > 50 µM; EC50 ([21]; Zika virus, Vero C1008): > 50 µM; EC50 ([22]; Sindbis virus, Vero C1008): > 50 µM; EC50 ([23]; Semliki Forest virus, Vero C1008): > 50 µM; CC50 [26]: > 50 µM; CC50 [28]: > 50 µM |
| Cn1c(-c2ccccc2)nc2cc(-c3ccc(O)cc3)cnc21 [Compound 19, 4-(3-methyl-2-phenyl-3H-imidazo [4,5-b]pyridin-6-yl)phenol] | 1.9 µM | 2.32 µM | 1.77 µM | 2.83 µM | 1.57 µM | 3.3 µM | 1.5 µM | 1.45 µM | 1.45 to 4.25 µM | little to no effect | negatively impacted the viability | cytotoxicity was observed on all host cell lines, with the exception of the non-cancerous HEL 229 cells | – | – | – | – | – | – | – | – | IC50 ([9]; Capan-1, LN-229, DND-41, K-562 and Z-138 cell lines, read-out: IC50 range, lowest inhibitory concentrations): 1.45 to 1.9 µM; Effect on cell cycle progression [29]: strong accumulation of cells in the G2/M phase; Effect on cell cycle progression [30]: strong accumulation of cells in the G2/M phase; Effect on cell cycle progression [31]: strong accumulation of cells in the G2/M phase |
| Cn1c(-c2ccccc2)nc2cc(-c3ccc(C(N)=O)cc3)cnc21 [Compound 22, 4-(3-methyl-2-phenyl-3H-imidazo[4,5-b]pyridin-6-yl)benzamide] | > 100 µM | > 100 µM | > 100 µM | > 100 µM | > 100 µM | 70.9 µM | > 100 µM | 58.1 µM | – | – | – | – | – | – | – | – | – | – | – | – | melting point: > 300 °C |
| CCOC(=O)[C@H]1O[C@@H]1C(=O)N[C@@H](CC(C)C)C(=O)NCCC(C)C [Compound E64d] | – | – | – | – | – | – | – | – | – | – | – | – | 2 µM | – | – | – | – | – | – | – | EC50 [13]: 3.9 µM; EC50 [19]: > 100 µM; EC50 ([20]; VeroE6 host cells, read-out: Antiviral Activity (EC50) YFV VeroE6): > 100 µM; EC50 [21]: 27.8 µM; EC50 [22]: > 100 µM; EC50 [23]: > 100 µM; CC50 [32]: > 100 µM; CC50 [33]: > 100 µM |
| CCC(CC)COC(=O)[C@H](C)N[P@](=O)(OC[C@H]1O[C@@](C#N)(c2ccc3c(N)ncnn23)[C@H](O)[C@@H]1O)Oc1ccccc1 [Remdesivir, remdesivir] | – | – | – | – | – | – | – | – | – | – | – | – | 0.2 µM | 0.06 µM | 0.2 µM | 0.006 µM | > 10 µM | > 10 µM | > 10 µM | > 10 µM | – |
